Counter-ions that a name gives are not always drawn. Like-named read-outs stand apart in the source and are kept apart here. Where a SMILES comes first, the peptide text is derived from it.
Key:
[1] = target: T1, SARS-CoV-2 PLpro (nsp3 1564–1878) (Severe acute respiratory syndrome coronavirus 2, UniProt P0DTD1); assay: biochemical; design: FRET-quenched peptide (Pro3) cleavage by PLpro, 10 min pre-incubation, slope over 20 min, normalised to no-compound control; conditions: read-out: % of control remaining
[2] = target: T1, SARS-CoV-2 PLpro (nsp3 1564–1878); assay: biochemical; design: FRET-quenched peptide (Pro3) cleavage by PLpro, 10 min pre-incubation, slope over 20 min, normalised to no-compound control; conditions: read-out: % of control remaining; remark: listed apart in the source

SMILES: C[C@@H](CN1CCC(Cc2ccccc2)CC1)[C@@H](O)c1ccc(O)cc1 [Ro 25-6981 hydrochloride]
- remaining activity at 1.25 µM ([1]; Well no.=1350, low concentration screen): 99.4%
- remaining activity at 3.75 µM ([2]; Well no.=1350, high concentration screen): 102%

SMILES: c1ccc2c(c1)OCC(C1=NCCN1)O2 (centres unmarked) [Idazoxan hydrochloride]
- remaining activity at 1.25 µM ([1]; Well no.=821, low concentration screen): 105%
- remaining activity at 3.75 µM ([2]; Well no.=821, high concentration screen): 102%

SMILES: OCC1=C[C@@H](O)[C@@H]2C=CO[C@@H](O[C@@H]3O[C@H](CO)[C@@H](O)[C@H](O)[C@H]3O)[C@H]12 [Aucubin]
- remaining activity at 1.25 µM ([1]; Well no.=3162, low concentration screen): 99.3%
- remaining activity at 3.75 µM ([2]; Well no.=3162, high concentration screen): 97.6%

SMILES: COCC(=O)O[C@]1(CCN(C)CCCc2nc3ccccc3[nH]2)CCc2cc(F)ccc2[C@@H]1C(C)C [Mibefradil dihydrochloride]
- remaining activity at 1.25 µM ([1]; Well no.=882, low concentration screen): 99.7%
- remaining activity at 3.75 µM ([2]; Well no.=882, high concentration screen): 91.3%

SMILES: NCCc1ccc(O)cc1 [4-Hydroxyphenethylamine hydrochloride]
- remaining activity at 1.25 µM ([1]; Well no.=1237, low concentration screen): 101%
- remaining activity at 3.75 µM ([2]; Well no.=1237, high concentration screen): 102%

SMILES: CO[C@H]1C(=O)[C@]2(C)[C@@H](OC)C[C@H]3OC[C@@]3(OC(C)=O)[C@H]2[C@H](OC(=O)c2ccccc2)[C@]2(O)C[C@H](OC(=O)[C@H](O)[C@@H](NC(=O)OC(C)(C)C)c3ccccc3)C(C)=C1C2(C)C [Cabazitaxel (Jevtana)]
- remaining activity at 1.25 µM ([1]; Well no.=5263, low concentration screen): 95.3%
- remaining activity at 3.75 µM ([2]; Well no.=5263, high concentration screen): 92.6%

SMILES: Cc1c(C(=O)NN2CCCCC2)nn(-c2ccc(Cl)cc2Cl)c1-c1ccc(Cl)cc1 [Rimonabant]
- remaining activity at 1.25 µM ([1]; Well no.=8438, low concentration screen): 92.2%
- remaining activity at 3.75 µM ([2]; Well no.=8438, high concentration screen): 97%

SMILES: O=C(CCCN1CCC(O)(c2cccc(C(F)(F)F)c2)CC1)c1ccc(F)cc1 [Trifluperidol]
- remaining activity at 1.25 µM ([1]; Well no.=2296, low concentration screen): 95.3%
- remaining activity at 3.75 µM ([2]; Well no.=2296, high concentration screen): 96.6%

SMILES: C=CCN1CCc2c(cc(O)c(O)c2Cl)C(c2ccccc2)C1 (racemic)
- remaining activity at 1.25 µM ([1]; Well no.=725, low concentration screen): 96.8%
- remaining activity at 3.75 µM ([2]; Well no.=725, high concentration screen): 96.5%

SMILES: CCCn1c(C)c(C(=O)c2cccc3ccccc23)c2ccccc21 [JWH-015]
- remaining activity at 1.25 µM [1]: 92.6%
- remaining activity at 3.75 µM [2]: 93.1%

SMILES: CC1COc2c(N3CCN(C)CC3)c(F)cc3c(=O)c(C(=O)O)cn1c23 (centres unmarked) [Ofloxacin]
- remaining activity at 1.25 µM ([1]; Well no.=898, low concentration screen): 106%
- remaining activity at 1.25 µM ([1]; Well no.=2047, low concentration screen): 104%
- remaining activity at 3.75 µM ([2]; Well no.=898, high concentration screen): 105%
- remaining activity at 3.75 µM ([2]; Well no.=2047, high concentration screen): 104%

SMILES: NCC(=O)NCC(=O)O [Glycylglycine] (H-Gly-Gly-OH)
- remaining activity at 1.25 µM ([1]; Well no.=6641, low concentration screen): 100%
- remaining activity at 3.75 µM ([2]; Well no.=6641, high concentration screen): 102%

SMILES: CN(C)C(=S)NN=C(c1ccccn1)c1ccccn1 [Dp44mT]
- remaining activity at 1.25 µM ([1]; Well no.=5584, low concentration screen): 99.1%
- remaining activity at 3.75 µM ([2]; Well no.=5584, high concentration screen): 101%

SMILES: CNC(=C[N+](=O)[O-])NCCSCc1ccc(CN(C)C)o1 [Ranitidine.HCl]
- remaining activity at 1.25 µM ([1]; Well no.=1642, low concentration screen): 105%
- remaining activity at 3.75 µM ([2]; Well no.=1642, high concentration screen): 105%

SMILES: Clc1cnc(Oc2ccc(Oc3ncc(Cl)cc3Cl)cc2)c(Cl)c1 [TCPOBOP]
- remaining activity at 1.25 µM ([1]; Well no.=1425, low concentration screen): 102%
- remaining activity at 3.75 µM ([2]; Well no.=1425, high concentration screen): 102%

SMILES: CCc1cccc(CC)c1NC(=O)N1Cc2[nH]nc(NC(=O)c3ccc(N4CCN(C)CC4)cc3)c2C1 [PHA-680632]
- remaining activity at 1.25 µM ([1]; Well no.=4865, low concentration screen): 97.9%
- remaining activity at 3.75 µM ([2]; Well no.=4865, high concentration screen): 101%

SMILES: CC(=O)NNC(=O)N1Cc2ccccc2Oc2ccc(Cl)cc21 [SC 19220]
- remaining activity at 1.25 µM ([1]; Well no.=1408, low concentration screen): 101%
- remaining activity at 3.75 µM ([2]; Well no.=1408, high concentration screen): 100%

SMILES: CN(C)CCCN1c2ccccc2CCc2ccccc21 [Imipramine hydrochloride]
- remaining activity at 1.25 µM ([1]; Well no.=1061, low concentration screen): 100%
- remaining activity at 3.75 µM ([2]; Well no.=1061, high concentration screen): 97.7%

SMILES: C[C@H](NC(=O)/C(C#N)=C/c1cccc(Br)n1)c1ccccc1 [WP1066]
- remaining activity at 1.25 µM ([1]; Well no.=4779, low concentration screen): 103%
- remaining activity at 3.75 µM ([2]; Well no.=4779, high concentration screen): 99%

SMILES: NC(=O)Nc1sc(-c2ccccc2)cc1C(N)=O [IKK-2 Inhibitor VI]
- remaining activity at 1.25 µM ([1]; Well no.=2437, low concentration screen): 107%
- remaining activity at 3.75 µM ([2]; Well no.=2437, high concentration screen): 106%

SMILES: CS(=O)(=O)Nc1ccc(-c2coc3cc(OCc4cccc(C(=O)O)c4)ccc3c2=O)cc1 [CVT-10216]
- remaining activity at 1.25 µM ([1]; Well no.=5513, low concentration screen): 105%
- remaining activity at 3.75 µM ([2]; Well no.=5513, high concentration screen): 108%

SMILES: COc1ccc2ccc(=O)oc2c1CC=C(C)C [Osthole]
- remaining activity at 1.25 µM ([1]; Well no.=3440, low concentration screen): 91.5%
- remaining activity at 1.25 µM ([1]; Well no.=8333, low concentration screen): 98.6%
- remaining activity at 3.75 µM ([2]; Well no.=3440, high concentration screen): 88.2%
- remaining activity at 3.75 µM ([2]; Well no.=8333, high concentration screen): 94.5%

SMILES: CN(c1ccccc1CNc1nc(Nc2ccc3c(c2)CC(=O)N3)ncc1C(F)(F)F)S(C)(=O)=O [PF431396]
- remaining activity at 1.25 µM ([1]; Well no.=3033, low concentration screen): 99.3%
- remaining activity at 3.75 µM ([2]; Well no.=3033, high concentration screen): 100%

SMILES: CCCCC[C@H](O)/C=C/C1=C(C/C=C\CCCC(=O)O)C(=O)CC1 [Prostaglandin B2]
- remaining activity at 1.25 µM ([1]; Well no.=4471, low concentration screen): 96.7%
- remaining activity at 3.75 µM ([2]; Well no.=4471, high concentration screen): 101%

SMILES: C=CC(=O)N1CC/C(=C\c2ccc(F)c([N+](=O)[O-])c2)C(=O)/C(=C/c2ccc(F)c([N+](=O)[O-])c2)C1 [VLX1570]
- remaining activity at 1.25 µM ([1]; Well no.=7794, low concentration screen): 95.6%
- remaining activity at 3.75 µM ([2]; Well no.=7794, high concentration screen): 95.4%

SMILES: O=C1Nc2ccccc2C1=O [Isatin]
- remaining activity at 1.25 µM ([1]; Well no.=8350, low concentration screen): 95.6%
- remaining activity at 3.75 µM ([2]; Well no.=8350, high concentration screen): 95.1%

SMILES: CC(C)c1cccc(C(C)C)c1O [Propofol]
- remaining activity at 1.25 µM ([1]; Well no.=544, low concentration screen): 104%
- remaining activity at 1.25 µM ([1]; Well no.=1893, low concentration screen): 92.7%
- remaining activity at 3.75 µM ([2]; Well no.=544, high concentration screen): 103%
- remaining activity at 3.75 µM ([2]; Well no.=1893, high concentration screen): 89.6%

SMILES: COc1ccc(Cn2ccc3ccc(C(=O)NO)cc32)cc1 [PCI-34051]
- remaining activity at 1.25 µM ([1]; Well no.=4710, low concentration screen): 107%
- remaining activity at 3.75 µM ([2]; Well no.=4710, high concentration screen): 103%

SMILES: C[N+]1(C)C2CC(OC(=O)[C@H](CO)c3ccccc3)CC1C1OC12 (single isomer, unassigned; (-)) [(-)-Scopolamine methyl nitrate]
- remaining activity at 1.25 µM ([1]; Well no.=1454, low concentration screen): 93.9%
- remaining activity at 3.75 µM ([2]; Well no.=1454, high concentration screen): 96.6%

SMILES: Cc1c2c(nn1C)CSCc1cc(n(C)n1)CSc1cc(c3ccccc3c1)OCCCc1c(C(=O)O)n(C)c3c-2c(Cl)ccc13 [AZD-5991]
- remaining activity at 1.25 µM ([1]; Well no.=7076, low concentration screen): 101%
- remaining activity at 3.75 µM ([2]; Well no.=7076, high concentration screen): 98.9%

SMILES: CC(C)[N+]1(C)[C@@H]2CC[C@H]1C[C@@H](OC(=O)C(CO)c1ccccc1)C2 (some centres unmarked) [Ipratropium bromide]
- remaining activity at 1.25 µM ([1]; Well no.=526, low concentration screen): 105%
- remaining activity at 3.75 µM ([2]; Well no.=526, high concentration screen): 103%

SMILES: CC[C@]1(O)C[C@@H]2CN(CCc3c([nH]c4ccccc34)[C@@](C(=O)OC)(c3cc4c(cc3OC)N(C)[C@H]3[C@@](O)(C(=O)OC)[C@H](OC(C)=O)[C@]5(CC)C=CCN6CC[C@]43[C@@H]65)C2)C1 [Vinblastine sulfate]
- remaining activity at 1.25 µM ([1]; Well no.=3224, low concentration screen): 100%
- remaining activity at 3.75 µM ([2]; Well no.=3224, high concentration screen): 97.9%

SMILES: O=c1c(-c2ccc(F)cc2)c(-c2ccncc2)[nH]n1-c1ccc(Cl)cc1 [p38 MAP Kinase Inhibitor]
- remaining activity at 1.25 µM ([1]; Well no.=2598, low concentration screen): 97.4%
- remaining activity at 3.75 µM ([2]; Well no.=2598, high concentration screen): 99.2%

SMILES: CN1CCN2c3ccccc3Cc3ccccc3C2C1 (centres unmarked) [Mianserin (hydrochloride)]
- remaining activity at 1.25 µM ([1]; Well no.=7477, low concentration screen): 105%
- remaining activity at 3.75 µM ([2]; Well no.=7477, high concentration screen): 96.9%

— publication PMC8286840, “Identifying SARS-CoV-2 antiviral compounds by screening for small molecule inhibitors of Nsp3 papain-like protease” (Biochemical Journal, 2021)
